Numbers after ± are expanded uncertainties.
Experiment: mn = molality of the nth substance listed, in mol/kg
Conditions: 100 kPa, Liquid, Pycnometric method

CCCCCCCCCCCC[N+](C)(CCO)CCO.[Br-] [N,N-bis(2-hydroxyethyl)-N-methyldodecan-1-aminium bromide] + O
mass density [kg/m3]
Conditions	293.15 K	298.15 K	303.15 K	308.15 K	313.15 K	318.15 K
m1 = 0.00497	998.465 ± 0.23	997.294 ± 0.25	995.89 ± 0.26	994.266 ± 0.27	992.443 ± 0.28	990.43 ± 0.29
m1 = 0.00607	998.521 ± 0.23	997.349 ± 0.25	995.942 ± 0.26	994.317 ± 0.27	992.492 ± 0.28	990.478 ± 0.29
m1 = 0.00698	998.568 ± 0.23	997.394 ± 0.25	995.986 ± 0.26	994.359 ± 0.27	992.533 ± 0.28	990.518 ± 0.29
m1 = 0.00805	998.622 ± 0.23	997.446 ± 0.25	996.036 ± 0.26	994.408 ± 0.27	992.58 ± 0.28	990.564 ± 0.29
m1 = 0.00909	998.675 ± 0.23	997.498 ± 0.25	996.086 ± 0.26	994.456 ± 0.27	992.626 ± 0.28	990.609 ± 0.29
m1 = 0.01002	998.722 ± 0.23	997.544 ± 0.25	996.13 ± 0.26	994.499 ± 0.27	992.667 ± 0.28	990.649 ± 0.29
m1 = 0.01109	998.774 ± 0.23	997.597 ± 0.25	996.18 ± 0.26	994.548 ± 0.27	992.714 ± 0.28	990.695 ± 0.29
m1 = 0.01202	998.818 ± 0.23	997.641 ± 0.25	996.222 ± 0.26	994.59 ± 0.27	992.755 ± 0.28	990.735 ± 0.29
m1 = 0.01306	998.867 ± 0.23	997.686 ± 0.25	996.268 ± 0.26	994.637 ± 0.27	992.801 ± 0.28	990.78 ± 0.29
m1 = 0.01414	998.915 ± 0.23	997.734 ± 0.25	996.315 ± 0.26	994.681 ± 0.27	992.847 ± 0.28	990.825 ± 0.29
m1 = 0.01505	998.953 ± 0.23	997.771 ± 0.25	996.353 ± 0.26	994.719 ± 0.27	992.884 ± 0.28	990.862 ± 0.29
m1 = 0.01609	998.993 ± 0.23	997.811 ± 0.25	996.394 ± 0.26	994.756 ± 0.27	992.923 ± 0.28	990.9 ± 0.29
m1 = 0.01815	999.08 ± 0.23	997.897 ± 0.25	996.476 ± 0.26	994.837 ± 0.27	993.001 ± 0.28	990.98 ± 0.29
m1 = 0.02008	999.16 ± 0.23	997.976 ± 0.25	996.554 ± 0.26	994.913 ± 0.27	993.076 ± 0.28	991.051 ± 0.29
m1 = 0.02518	999.367 ± 0.23	998.178 ± 0.25	996.752 ± 0.26	995.11 ± 0.27	993.267 ± 0.28	991.242 ± 0.29
m1 = 0.03023	999.571 ± 0.23	998.38 ± 0.25	996.95 ± 0.26	995.305 ± 0.27	993.46 ± 0.28	991.431 ± 0.29
m1 = 0.03525	999.778 ± 0.23	998.58 ± 0.25	997.146 ± 0.26	995.497 ± 0.27	993.649 ± 0.28	991.62 ± 0.29
m1 = 0.04028	999.983 ± 0.23	998.782 ± 0.25	997.344 ± 0.26	995.692 ± 0.27	993.84 ± 0.28	991.807 ± 0.29
m1 = 0.04512	1000.19 ± 0.23	998.981 ± 0.25	997.539 ± 0.26	995.884 ± 0.27	994.027 ± 0.28	991.991 ± 0.29
m1 = 0.05025	1000.4 ± 0.23	999.187 ± 0.25	997.74 ± 0.26	996.082 ± 0.27	994.223 ± 0.28	992.184 ± 0.29

CCCCCCCCCCCC[N+](C)(C)CCO.[Br-] [dodecyl(2-hydroxyethyl)dimethylammonium bromide] + O
mass density [kg/m3]
Conditions	293.15 K	298.15 K	303.15 K	308.15 K	313.15 K	318.15 K
m1 = 0.00798	998.5 ± 0.23	997.328 ± 0.25	995.92 ± 0.26	994.291 ± 0.27	992.462 ± 0.28	990.446 ± 0.29
m1 = 0.009	998.537 ± 0.23	997.364 ± 0.25	995.954 ± 0.26	994.324 ± 0.27	992.494 ± 0.28	990.476 ± 0.29
m1 = 0.01003	998.574 ± 0.23	997.4 ± 0.25	995.989 ± 0.26	994.356 ± 0.27	992.525 ± 0.28	990.506 ± 0.29
m1 = 0.01099	998.61 ± 0.23	997.434 ± 0.25	996.02 ± 0.26	994.387 ± 0.27	992.554 ± 0.28	990.534 ± 0.29
m1 = 0.01195	998.646 ± 0.23	997.468 ± 0.25	996.053 ± 0.26	994.418 ± 0.27	992.584 ± 0.28	990.562 ± 0.29
m1 = 0.013	998.684 ± 0.23	997.503 ± 0.25	996.087 ± 0.26	994.451 ± 0.27	992.616 ± 0.28	990.593 ± 0.29
m1 = 0.01395	998.716 ± 0.23	997.536 ± 0.25	996.117 ± 0.26	994.481 ± 0.27	992.644 ± 0.28	990.621 ± 0.29
m1 = 0.01498	998.747 ± 0.23	997.566 ± 0.25	996.147 ± 0.26	994.511 ± 0.27	992.676 ± 0.28	990.65 ± 0.29
m1 = 0.01595	998.774 ± 0.23	997.591 ± 0.25	996.174 ± 0.26	994.537 ± 0.27	992.701 ± 0.28	990.679 ± 0.29
m1 = 0.01793	998.831 ± 0.23	997.647 ± 0.25	996.226 ± 0.26	994.588 ± 0.27	992.75 ± 0.28	990.727 ± 0.29
m1 = 0.01991	998.886 ± 0.23	997.7 ± 0.25	996.278 ± 0.26	994.637 ± 0.27	992.8 ± 0.28	990.776 ± 0.29
m1 = 0.02489	999.025 ± 0.23	997.835 ± 0.25	996.408 ± 0.26	994.766 ± 0.27	992.92 ± 0.28	990.893 ± 0.29
m1 = 0.02994	999.159 ± 0.23	997.963 ± 0.25	996.535 ± 0.26	994.888 ± 0.27	993.043 ± 0.28	991.013 ± 0.29
m1 = 0.03493	999.299 ± 0.23	998.101 ± 0.25	996.667 ± 0.26	995.018 ± 0.27	993.17 ± 0.28	991.136 ± 0.29
m1 = 0.0399	999.439 ± 0.23	998.235 ± 0.25	996.795 ± 0.26	995.142 ± 0.27	993.291 ± 0.28	991.254 ± 0.29
m1 = 0.04493	999.582 ± 0.23	998.372 ± 0.25	996.93 ± 0.26	995.274 ± 0.27	993.419 ± 0.28	991.378 ± 0.29
m1 = 0.04982	999.714 ± 0.23	998.5 ± 0.25	997.055 ± 0.26	995.395 ± 0.27	993.537 ± 0.28	991.49 ± 0.29
m1 = 0.05488	999.856 ± 0.23	998.637 ± 0.25	997.186 ± 0.26	995.52 ± 0.27	993.66 ± 0.28	991.613 ± 0.29

CCCCCCCCCCCC[N+](C)(C)C.[Br-] [dodecyltrimethylammonium bromide] + O
mass density [kg/m3]
Conditions	293.15 K	298.15 K	303.15 K	308.15 K	313.15 K	318.15 K
m1 = 0.00608	998.345 ± 0.23	997.176 ± 0.25	995.77 ± 0.26	994.144 ± 0.27	992.319 ± 0.28	990.306 ± 0.29
m1 = 0.00707	998.368 ± 0.23	997.197 ± 0.25	995.79 ± 0.26	994.162 ± 0.27	992.336 ± 0.28	990.321 ± 0.29
m1 = 0.00796	998.388 ± 0.23	997.216 ± 0.25	995.807 ± 0.26	994.178 ± 0.27	992.35 ± 0.28	990.334 ± 0.29
m1 = 0.00897	998.411 ± 0.23	997.237 ± 0.25	995.827 ± 0.26	994.196 ± 0.27	992.367 ± 0.28	990.349 ± 0.29
m1 = 0.00999	998.434 ± 0.23	997.259 ± 0.25	995.847 ± 0.26	994.214 ± 0.27	992.383 ± 0.28	990.364 ± 0.29
m1 = 0.01096	998.456 ± 0.23	997.28 ± 0.25	995.866 ± 0.26	994.232 ± 0.27	992.399 ± 0.28	990.379 ± 0.29
m1 = 0.01199	998.48 ± 0.23	997.302 ± 0.25	995.886 ± 0.26	994.25 ± 0.27	992.416 ± 0.28	990.394 ± 0.29
m1 = 0.01299	998.503 ± 0.23	997.324 ± 0.25	995.905 ± 0.26	994.268 ± 0.27	992.432 ± 0.28	990.409 ± 0.29
m1 = 0.01398	998.524 ± 0.23	997.343 ± 0.25	995.923 ± 0.26	994.286 ± 0.27	992.448 ± 0.28	990.424 ± 0.29
m1 = 0.01503	998.543 ± 0.23	997.363 ± 0.25	995.942 ± 0.26	994.304 ± 0.27	992.466 ± 0.28	990.44 ± 0.29
m1 = 0.01596	998.556 ± 0.23	997.376 ± 0.25	995.956 ± 0.26	994.32 ± 0.27	992.48 ± 0.28	990.454 ± 0.29
m1 = 0.01802	998.592 ± 0.23	997.408 ± 0.25	995.986 ± 0.26	994.345 ± 0.27	992.506 ± 0.28	990.48 ± 0.29
m1 = 0.02001	998.622 ± 0.23	997.435 ± 0.25	996.013 ± 0.26	994.37 ± 0.27	992.532 ± 0.28	990.503 ± 0.29
m1 = 0.02494	998.695 ± 0.23	997.505 ± 0.25	996.077 ± 0.26	994.432 ± 0.27	992.587 ± 0.28	990.558 ± 0.29
m1 = 0.02994	998.775 ± 0.23	997.58 ± 0.25	996.147 ± 0.26	994.498 ± 0.27	992.647 ± 0.28	990.616 ± 0.29
m1 = 0.03501	998.85 ± 0.23	997.647 ± 0.25	996.212 ± 0.26	994.557 ± 0.27	992.706 ± 0.28	990.671 ± 0.29
m1 = 0.03995	998.918 ± 0.23	997.712 ± 0.25	996.271 ± 0.26	994.615 ± 0.27	992.76 ± 0.28	990.721 ± 0.29
m1 = 0.04505	998.991 ± 0.23	997.78 ± 0.25	996.336 ± 0.26	994.675 ± 0.27	992.817 ± 0.28	990.774 ± 0.29
m1 = 0.04973	999.061 ± 0.23	997.845 ± 0.25	996.396 ± 0.26	994.733 ± 0.27	992.871 ± 0.28	990.824 ± 0.29
m1 = 0.05498	999.145 ± 0.23	997.923 ± 0.25	996.47 ± 0.26	994.801 ± 0.27	992.935 ± 0.28	990.883 ± 0.29
m1 = 0.06001	999.217 ± 0.23	997.992 ± 0.25	996.535 ± 0.26	994.86 ± 0.27	992.993 ± 0.28	990.938 ± 0.29
